Measured values reported in patent publication US4146717A, “Nitroquinazolinone compounds having antiviral properties” (priority 1974, dated 1979).
≈ marks a conversion by molar mass, not a printed value. Read-outs that look alike come from different tables or passages of the source.

Experiments:
[1] = cited from earlier work; for undesirable side effects: clinical
[2] = test system: DNA type viruses such as herpes simplex and vaccinia; conditions: clinical use; cited from earlier work
[3] = Toxic effects in chick embryo fibroblast cell culture (minimum toxic concentration); conditions: chicken, chick embryo fibroblast cells
[4] = test system: vaccinia virus IHD strain; assay: microbe, parasite or virus in culture; format: cell-based; conditions: for MIC: Orthopoxvirus vaccinia, in Gallus gallus, 72 h, read-out: minimum inhibitory concentration (MIC); for Chemotherapeutic index (MTC/MIC): chick embryo fibroblast cells, 4320 min
[5] = Acute toxicity in mice, intraperitoneal; format: in vivo, mice (ddN strain); conditions: for No. of survivors/No. of tested: 7 days observation
Excerpt: The compounds of the present invention are not only very effective but also show no side effects. For example, acute toxicity of the present compound by the intraperitoneal injection in mice is remarkably lower than Methisazone as shown in Table III.
animals: male mice weighing 17 to 20 g of ddN strain
administration: intraperitoneally, suspension in 0.5% carboxymethyl
observation period: 7 days after an administration

[6] = test system: vaccinia virus IHD strain; format: in vivo, mice (ICR strain); conditions: -2 to 100 hours after virus challenge, 12 days observation; for Survival rate, PO: 100 mg/kg orally; for Survival rate, SC: 100 mg/kg subcutaneously
[7] = test system: parainfluenza virus type 1, Sendai virus; assay: Effects on parainfluenza virus multiplication in chick embryo fibroblast cell culture (haemagglutinating titration); format: cell-based; conditions: 2 days at 37° C, non-medicated control 32
Experimental: Effects on parainfluenza virus multiplication in chick embryo fibroblast cell culture.
A general procedure of haemagglutinating titration was employed. Monolayers of chick embryo fibroblast cells were prepared by the same procedure as described in Example 12. Parainfluenza virus type 1, haemagglutinating virus of Japan (HVJ), so called Sendai virus was challenged on 3rd day monolayer cell sheet. […] After 2 days' incubation at 37° C., the cells were harvested, disrupted by freezing and thawing and centrifuged. The haemagglutinating titre of the supernatant was assayed using 1% guinea pig red blood cell as usual.
cells: chick embryo fibroblast cell
virus: parainfluenza virus type 1, Sendai virus

[8] = test system: adeno virus type 8 Kanehisa strain; conditions: concentration 40; 5th day after infection; non-medicated control 512
[9] = test system: herpes simplex virus HF strain; assay: Effects on herpes simplex virus multiplication in chick embryo fibroblast cell culture (plaque reduction); format: cell-based; conditions: 5 μg/ml, 4 days at 37° C; for Average number of plaques: non-medicated control 45; for inhibition at 5 µg/mL: Fibroblast, 96 h, read-out: Percentage inhibition of occurrences of plaques
Experimental: Effects on herpes simplex virus multiplication in chick embryo fibroblast cell culture.
A general procedure of plaque-reduction method was employed. Monolayers of chick embryo fibroblast cells were prepared by a general procedure, i.e., trypsinization of 10 day old chick embryo and then 2 days' incubation in Eagle's minimum essential medium (Eagle's MEM) containing a 5% calf serum at 37° C. in a plaque tube. Then, growth medium was discarded and about 100 plaque forming units (PFU) of herpes simplex virus HF strain per plaque tube were challenged. […] After 4 day's incubation at 37° C., the number of plaques was counted and compared with the controlled plaque tube without test compounds.
cells: chick embryo fibroblast cells
virus: herpes simplex virus HF strains
observation: by counting the number of plaques after 4 days' incubation

[10] = test system: Influenza virus NWS strain; format: in vivo, mice (ICR strain); conditions: 14 days observation, control 1/8

Row | SMILES | MCC at 72 h [3] [µg/mL] | MIC [4] [µg/mL] | Chemotherapeutic index (MTC/MIC) ([4]; vaccinia virus) | further results
1 | NC12CC3CC(CC(C3)C1)C2 [Amantadine] | – | – | – | undesirable side effects [1]: severe side effect on central nervous system
2 | O=c1[nH]c(=O)n([C@H]2C[C@H](O)[C@@H](CO)O2)cc1I [Idoxuridine] | – | – | – | antiviral spectrum [2]: only effective against DNA type viruses such as herpes simplex and vaccinia; toxicity limiting use ([1]; clinical use): it can only be used by topical application because of its toxicity
3 | CN1C(=O)C(=NNC(N)=S)c2ccccc21 [Methisazone, 1-methylindole-2,3-dione 3-thiosemicarbazone, reference compound] | 20 | 5 (≈ 21.3 µM) | 4 | undesirable side effects [1]: severe vomiting, dermatitis and jaundice; minimum inhibitory concentration (MIC) ([4]; vaccinia virus IHD strain, 1.1 × 10^4 PFU/tube, CPE after 3 days' incubation at 37° C): 5 µg/mL (≈ 21.3 µM); No. of survivors/No. of tested ([5]; 1000 mg/kg intraperitoneally): 3/5; No. of survivors/No. of tested ([5]; 2000 mg/kg intraperitoneally): 0/5; gastro-duodenal hemorrhage and intestinal ulceration ([5]; mice of the acute toxicity test): Severe gastro-duodenal hemorrhage and intestinal ulceration were observed in dead mice; Survival rate, PO [6]: 100%; Survival rate, SC [6]: 100%
4 | O=c1nc(-c2ccccc2)c2cc([N+](=O)[O-])ccc2n1CC1CCCCCC1 [compound 1] | 100 | 0.1 (≈ 0.265 µM) | 1000 | –
5 | O=c1nc(-c2ccccc2)c2cc([N+](=O)[O-])ccc2n1C1CCCCC1 [compound 2] | 100 | 0.1 (≈ 0.286 µM) | 1000 | Haemagglutinating titre ([7]; 12.5 μg/ml): 4; Haemagglutinating titre ([7]; 25 μg/ml): 2
6 | O=c1nc(-c2ccccc2)c2cc([N+](=O)[O-])ccc2n1CC1CCCCC1 [compound 3] | 100 | 0.1 (≈ 0.275 µM) | 1000 | Haemagglutinating titre [8]: 32; Survival rate, PO [6]: 100%; Survival rate, SC [6]: 100%
7 | O=c1nc(-c2ccccc2)c2cc([N+](=O)[O-])ccc2n1CC1CCCCCCC1 [compound 4] | 100 | 0.1 (≈ 0.255 µM) | 1000 | –
8 | O=c1nc(-c2ccccc2)c2cc([N+](=O)[O-])ccc2n1CC1CCCCO1 (centres unmarked) [compound 5] | > 100 | 0.2 (≈ 0.547 µM) | – | Haemagglutinating titre [8]: 64; Chemotherapeutic index (MTC/MIC) [4]: > 500; Average number of plaques [9]: 9; inhibition at 5 µg/mL [9]: 80%; No. of survivors/No. of tested ([5]; 1000 mg/kg intraperitoneally): 5/5; No. of survivors/No. of tested ([5]; 2000 mg/kg intraperitoneally): 4/5; Survival rate, SC [6]: 100%; Haemagglutinating titre ([7]; 12.5 μg/ml): 4; Haemagglutinating titre ([7]; 25 μg/ml): < 2; Survival rate ([10]; 10 mg/kg subcutaneously): 4/8; Survival rate ([10]; 50 mg/kg subcutaneously): 6/8
9 | O=c1nc(-c2ccccc2)c2cc([N+](=O)[O-])ccc2n1Cc1ccccn1 [compound 6] | 50 | 0.2 (≈ 0.558 µM) | 250 | –
10 | O=c1nc(-c2ccccc2)c2cc([N+](=O)[O-])ccc2n1CC1CCCC1 [compound 7] | > 100 | 0.2 (≈ 0.572 µM) | > 500 | –
11 | O=c1nc(-c2ccccc2)c2cc([N+](=O)[O-])ccc2n1Cc1ccccc1Cl [compound 8] | 5 | 0.25 (≈ 0.638 µM) | 20 | –
12 | Cc1ccccc1Cn1c(=O)nc(-c2ccccc2)c2cc([N+](=O)[O-])ccc21 [compound 9] | 5 | 0.25 (≈ 0.673 µM) | 20 | Average number of plaques [9]: 2; inhibition at 5 µg/mL [9]: 96%
13 | O=c1nc(-c2cccs2)c2cc([N+](=O)[O-])ccc2n1CC1CCCCO1 (centres unmarked) [compound 10] | > 100 | 0.4 (≈ 1.08 µM) | > 250 | –
14 | O=c1nc(-c2ccccc2)c2cc([N+](=O)[O-])ccc2n1Cc1ccccc1 [compound 11] | 25 | 0.6 (≈ 1.68 µM) | 40 | Survival rate, SC [6]: 100%
15 | O=c1nc(-c2ccccc2)c2cc([N+](=O)[O-])ccc2n1Cc1cccs1 [compound 12] | 50 | 0.6 (≈ 1.65 µM) | 80 | –
16 | O=c1nc(-c2ccccc2)c2cc([N+](=O)[O-])ccc2n1Cc1ccco1 [compound 13] | 100 | 1 (≈ 2.88 µM) | 100 | –
17 | O=c1nc(-c2ccccc2)c2cc([N+](=O)[O-])ccc2n1CC1CCCO1 (centres unmarked) [compound 14] | > 100 | 1.25 (≈ 3.56 µM) | > 80 | Haemagglutinating titre [8]: 32; No. of survivors/No. of tested ([5]; 1000 mg/kg intraperitoneally): 5/5; No. of survivors/No. of tested ([5]; 2000 mg/kg intraperitoneally): 4/5; Survival rate, SC [6]: 100%
18 | O=c1nc(-c2ccccc2)c2cc([N+](=O)[O-])ccc2n1CCC1CCCCC1 [compound 15] | > 100 | 5 (≈ 13.2 µM) | > 20 | –
19 | CCN(CC)C(=O)Cn1c(=O)nc(-c2ccccc2)c2cc([N+](=O)[O-])ccc21 [compound 17] | > 100 | 5 (≈ 13.1 µM) | > 20 | –
20 | O=c1nc(-c2ccccc2)c2cc([N+](=O)[O-])ccc2n1CC1CC1 [compound 18] | > 100 | 5 (≈ 15.6 µM) | > 20 | –
21 | CCOCCn1c(=O)nc(-c2ccccc2)c2cc([N+](=O)[O-])ccc21 [compound 19] | > 100 | 5 (≈ 14.7 µM) | > 20 | –
22 | O=c1nc(-c2ccccc2Cl)c2cc([N+](=O)[O-])ccc2n1CC1CC1 [compound 20] | 50 | 5 (≈ 14.1 µM) | 10 | –
23 | O=c1nc(C2CCCCC2)c2cc([N+](=O)[O-])ccc2n1CC1CC1 [compound 21] | 50 | 5 (≈ 15.3 µM) | 10 | –
24 | CSCn1c(=O)nc(-c2ccccc2)c2cc([N+](=O)[O-])ccc21 [compound 22] | 50 | 5 (≈ 15.3 µM) | 10 | –
